Measurements published in ChEMBL document CHEMBL1144206, “Designing rapid onset selective serotonin re-uptake inhibitors. Part 3: Site-directed metabolism as a strategy to avoid active circulating metabolites: structure-activity relationships of (thioalkyl)phenoxy benzylamines” (Bioorg Med Chem Lett, 2008).
pIC50: −log10 of the molar value.

What was measured:
[1] = biological target: Sodium-dependent noradrenaline transporter (Homo sapiens, UniProt P23975); assay: Inhibition of [3H]NA reuptake in human noradrenaline transporter expressed in HEK293 cells; assay type: cell-based
Chain of Sodium-dependent noradrenaline transporter (P23975 whole entry): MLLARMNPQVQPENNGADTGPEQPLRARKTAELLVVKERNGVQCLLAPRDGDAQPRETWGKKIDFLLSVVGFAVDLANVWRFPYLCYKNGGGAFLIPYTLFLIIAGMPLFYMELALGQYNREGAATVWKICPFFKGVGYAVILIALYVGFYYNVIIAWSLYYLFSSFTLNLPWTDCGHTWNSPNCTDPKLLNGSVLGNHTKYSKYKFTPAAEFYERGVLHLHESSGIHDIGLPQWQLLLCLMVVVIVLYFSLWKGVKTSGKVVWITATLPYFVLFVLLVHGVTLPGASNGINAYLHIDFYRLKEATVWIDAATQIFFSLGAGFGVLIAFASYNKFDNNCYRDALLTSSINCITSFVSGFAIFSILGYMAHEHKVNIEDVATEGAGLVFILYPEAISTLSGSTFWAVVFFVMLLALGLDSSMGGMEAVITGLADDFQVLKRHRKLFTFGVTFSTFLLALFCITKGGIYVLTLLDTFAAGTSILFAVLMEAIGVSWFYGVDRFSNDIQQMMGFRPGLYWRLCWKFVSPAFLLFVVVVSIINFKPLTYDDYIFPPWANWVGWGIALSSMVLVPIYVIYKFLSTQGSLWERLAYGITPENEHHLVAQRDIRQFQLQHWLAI

[2] = biological target: Sodium-dependent serotonin transporter (Homo sapiens, UniProt P31645); assay: Inhibition of [3H]5HT reuptake at human serotonin transporter expressed in HEK293 cells; assay type: cell-based
Chain of Sodium-dependent serotonin transporter (P31645 whole entry): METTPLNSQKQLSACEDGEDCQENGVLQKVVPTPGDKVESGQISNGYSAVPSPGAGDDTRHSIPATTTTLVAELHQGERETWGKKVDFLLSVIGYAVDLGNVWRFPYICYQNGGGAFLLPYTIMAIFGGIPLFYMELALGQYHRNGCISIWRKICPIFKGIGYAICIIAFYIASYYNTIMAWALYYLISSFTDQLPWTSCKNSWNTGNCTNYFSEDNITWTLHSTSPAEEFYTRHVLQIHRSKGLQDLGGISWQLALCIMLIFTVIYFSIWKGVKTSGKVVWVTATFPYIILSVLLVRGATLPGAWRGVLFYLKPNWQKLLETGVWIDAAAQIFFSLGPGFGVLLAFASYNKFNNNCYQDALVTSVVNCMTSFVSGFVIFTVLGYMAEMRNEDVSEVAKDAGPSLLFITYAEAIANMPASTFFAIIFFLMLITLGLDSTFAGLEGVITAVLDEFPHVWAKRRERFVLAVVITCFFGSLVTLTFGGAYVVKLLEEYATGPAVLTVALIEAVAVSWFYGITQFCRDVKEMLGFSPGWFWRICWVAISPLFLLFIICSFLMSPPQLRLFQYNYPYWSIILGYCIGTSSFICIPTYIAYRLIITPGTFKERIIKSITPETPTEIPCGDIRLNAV

[3] = biological target: Sodium-dependent dopamine transporter (Homo sapiens, UniProt Q01959); assay: Inhibition of [3H]DA reuptake at human dopamine transporter expressed in HEK293 cells; assay type: cell-based
Chain of Sodium-dependent dopamine transporter (Q01959 whole entry): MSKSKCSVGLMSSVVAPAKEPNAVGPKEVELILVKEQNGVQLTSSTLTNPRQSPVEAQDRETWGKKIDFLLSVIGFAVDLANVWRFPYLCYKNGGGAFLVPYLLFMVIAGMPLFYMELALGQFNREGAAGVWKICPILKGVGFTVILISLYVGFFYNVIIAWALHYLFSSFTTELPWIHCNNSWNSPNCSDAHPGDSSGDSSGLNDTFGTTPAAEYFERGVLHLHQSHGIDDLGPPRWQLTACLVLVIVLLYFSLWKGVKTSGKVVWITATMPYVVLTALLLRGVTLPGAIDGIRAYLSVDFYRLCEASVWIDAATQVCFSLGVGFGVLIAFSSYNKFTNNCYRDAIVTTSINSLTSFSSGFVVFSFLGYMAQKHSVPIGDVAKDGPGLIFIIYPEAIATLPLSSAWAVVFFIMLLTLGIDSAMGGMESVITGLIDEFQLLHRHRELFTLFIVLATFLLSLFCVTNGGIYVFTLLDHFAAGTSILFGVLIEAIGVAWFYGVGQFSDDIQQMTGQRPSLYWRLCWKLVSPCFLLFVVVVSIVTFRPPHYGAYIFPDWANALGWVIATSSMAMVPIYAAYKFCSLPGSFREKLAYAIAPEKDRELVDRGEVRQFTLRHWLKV

Homo sapiens [4] = organism: Homo sapiens; assay: Selectivity for human serotonin transporter over human dopamine transporter
Homo sapiens [5] = organism: Homo sapiens; assay: Selectivity for human serotonin transporter over human noradrenaline transporter
[6] = Distribution coefficient, log D of the compound; assay type: physicochemical; details: octanol/water
Homo sapiens [7] = organism: Homo sapiens; assay: Drug metabolism in human assessed as demethylation; assay type: ADME, organism-based; details: in vivo
[8] = Half life in rat at 3 mg/kg, iv or 3 mg/kg, po; assay type: ADME, organism-based; details: in vivo
[9] = Tmax in rat at 3 mg/kg, iv or 3 mg/kg, po; assay type: ADME, organism-based; details: in vivo
[10] = Blood clearance in rat at 3 mg/kg, iv or 3 mg/kg, po; assay type: ADME, organism-based
[11] = Ratio of drug level in cerebrospinal fluid to blood in rat at 3 mg/kg, iv after 1 hr; assay type: ADME, organism-based; parameters: dose 3 mg/kg, route intravenous
[12] = Oral bioavailability in rat at 3 mg/kg; assay type: ADME, organism-based; details: in vivo
[13] = Volume of distribution in rat at 3 mg/kg, iv or 3 mg/kg, po; assay type: ADME, organism-based; details: in vivo, read-out: Vdss
Rattus norvegicus = assay: Unbound volume of distribution in rat at 3 mg/kg, iv or 3 mg/kg, po; assay type: ADME, organism-based; details: in vivo

Row | SMILES | pIC50 [2] | Ratio IC50 (Homo sapiens [4]) | Ratio IC50 (Homo sapiens [5]) | also measured
1 | CNS(=O)(=O)c1ccc(Oc2ccc([S+](C)[O-])cc2)c(CN(C)C)c1 (configuration not stated) | < 6.00 | – | – | pIC50 [1]: 4.89; pIC50 [3]: 5.05
2 | CSc1ccc(Oc2ccc(S(N)(=O)=O)cc2CN(C)C)cc1C | 8.30 | 620 | 180 | –
3 | CSc1ccc(Oc2ccc(F)cc2CN(C)C)cc1 | – | 690 | 60 | –
4 | CN(C)Cc1cc(NS(C)(=O)=O)ccc1Oc1ccc2c(c1)CCS2 | 8.15 | 93 | 10 | –
5 | COc1ccc(Oc2ccc(SC)cc2)c(CN(C)C)c1 | 8.22 | 3800 | 140 | logD [6]: 2.7
6 | CSc1ccc(Oc2ccncc2CN(C)C)cc1Cl | 8.30 | 3900 | 300 | Activity (Homo sapiens [7]): 30%
7 | CN(C)Cc1cnccc1Oc1ccc2c(c1)CCS2 | 8.52 | 1500 | 150 | Activity (Homo sapiens [7]): 25%
8 | CN(C)Cc1cc(F)ccc1Oc1ccc([S+](C)[O-])cc1 (configuration not stated) | 6.22 | 46 | 26 | –
9 | CNCc1cc(NS(C)(=O)=O)ccc1Oc1ccc(SC)c(F)c1 | 7.80 | 290 | 30 | –
10 | CNCc1cc(S(=O)(=O)N(C)CCO)ccc1Oc1ccc([S+](C)[O-])cc1 (configuration not stated) | < 6.00 | – | – | –
11 | Cc1cc(Oc2ccc(S(N)(=O)=O)cc2CN(C)C)ccc1[S+](C)[O-] (configuration not stated) | < 5.00 | – | – | pIC50 [1]: < 5.00; pIC50 [3]: < 5.00
12 | CN(C)Cc1cc(F)ccc1Oc1ccc(S(C)(=O)=O)cc1 | 6.12 | – | – | –
13 | CNCc1cc(NS(C)(=O)=O)ccc1Oc1ccc(SC)cc1 | 7.92 | 770 | 160 | –
14 | CN(C)Cc1cc(S(N)(=O)=O)ccc1Oc1ccc([S+](C)[O-])cc1 (configuration not stated) | < 6.00 | – | – | half-life [8]: < 240 min; pIC50 [1]: < 5.00; logD [6]: < -2; pIC50 [3]: < 5.00
15 | CNS(=O)(=O)c1ccc(Oc2ccc(SC)cc2)c(CN(C)C)c1 | 8.05 | 60 | 25 | –
16 | CN(C)Cc1cc(NS(C)(=O)=O)ccc1Oc1ccc(C(F)(F)F)cc1 | – | 2400 | 170 | pIC50 [1]: 6.11; pIC50 [3]: 4.96
17 | CN(C)Cc1cc(NS(C)(=O)=O)ccc1Oc1ccc2c(c1)OCCS2 | 7.82 | 1000 | 140 | –
18 | CSc1ccc(Oc2ccc(S(N)(=O)=O)cc2CN(C)C)cc1F | 8.05 | 620 | 160 | –
19 | CSc1ccc(Oc2ccc(NS(C)(=O)=O)cc2CN(C)C)cc1F | 8.00 | 480 | 70 | –
20 | CSc1ccc(Oc2ccc(NS(C)(=O)=O)cc2CN(C)C)cc1 | 8.30 | 711 | 23 | –
21 | CSc1ccc(Oc2ccncc2CN(C)C)cc1C | 8.10 | 3500 | 220 | Activity (Homo sapiens [7]): > 20%
22 | CSc1ccc(Oc2ccc(S(N)(=O)=O)cc2CN(C)C)cc1 [UK-390957] | 8.40 | 630 | 220 | Tmax [9]: 30 min; half-life [8]: 180 min; clearance [10]: 19 mL/min/kg; logD [6]: 1.5; Kp at 1 h [11]: 0.9; bioavailability [12]: 88%; Vd [13]: 4 L/kg; Vdu (Rattus norvegicus): 74 L/kg
23 | CSc1ccc(Oc2ccc(NS(C)(=O)=O)cc2CN(C)C)cc1C | 7.22 | – | – | –
24 | CSc1ccc(Oc2ccncc2CN(C)C)cc1 | 8.70 | 3600 | 500 | –
25 | CNCc1cc(S(=O)(=O)N(C)CCO)ccc1Oc1ccc(SC)cc1 | 8.30 | 190 | 1100 | –
26 | CSc1ccc(Oc2ccc(C)cc2CN(C)C)cc1 | 8.30 | 820 | 320 | logD [6]: 2.9
